This is an account of results in patent US6686349B2, “Substituted tetracyclic pyrroloquinolone derivatives useful as phosphodiesterase inhibitors” (Ortho-McNeil Pharmaceutical, Inc., priority 2001, dated 2004).

Tested on in the first data set: not listed separately
The experiment in a line: In vivo testing following the procedure of Carter et al. The note with it: J. Urology 1998, 160, 242-246. On the procedure: Following the procedure disclosed by Carter et al., (Carter, A. J., Ballard, S. A., and Naylor, A. M.) in The Journal of Urology 1998, 160, 242-246, compound #8 was tested as active for in vivo activity.
On to `CN1CC(=O)N2[C@H](c3ccc4c(c3)OCO4)c3[nH]c4ccccc4c(=O)c3[C@@H]2C1=O` [Compound 8, 11-Benzo[1,3]dioxol-5-yl-3-methyl-2,3,4a,11-tetrahydro-10H-3,10,11a-triaza-benzo[b]fluorene-1,4,5-trione], for which the in vivo activity result is listed as “active”.

Tested on in the next data set: not given
Assay: not given
The note with it: use of sildenafil; non-selective effects on a variety of tissues; cited from earlier work.
As for `CCCc1nn(C)c2c(=O)[nH]c(-c3cc(S(=O)(=O)N4CCN(C)CC4)ccc3OCC)nc12` [sildenafil, 5-[2-ethoxy-5-(4-methylpiperazin-1-ylsulphonyl)phenyl]-1-methyl-3-n-propyl-6,7-dihydro-1H-pyrazolo[4,3-d]pyrimidin-7-one], the undesirable side effects entry was “headache, flushing and disrupted color vision”.

For the next data set, the target named is PDEV (UniProt O76074). The experiment in a line: In vitro determination of Ki for phosphodiesterase inhibitors (PDEV). It counts as biochemical, rabbit and human tissues. To be noted: 30 nM 3H-cGMP, 30° C. for 90 minutes; Ki is equivalent to the IC50 value. On the procedure: Cyclic Nucleotide Phosphodiesterase (PDE) Assay
PDEV was isolated from rabbit and human tissues according to the protocol described by Boolell et al. (Boolell, M., Allen, M. J., Ballard, S. A., Ge[o-Attee, Muirhead, G. J., Naylor, A. M., Osterloh, I. H., and Gingell, C) in International Journal of Impotence Research 1996 8, 47-52 with minor modifications.
Briefly, rabbit or human tissues were homogenized in an ice-cold buffer solution containing 20 mM HEPES (pH 7.2), 0.25M sucrose, 1 mM EDTA, and 1 mM PMSF. The homogenates were centrifuged at 100,000 g for 60 minutes at 4° C. The supernatant was filtered through […] filter and loaded on a Pharmacia Mono Q anion exchange column (1 ml bed volume) that was equilibrated with 20 mM HEPES, 1 mM EDTA and 0.5 mM PMSF. After washing out unbound proteins, the enzymes were eluted with a linear gradient of 100-600 mM NaCl in the same buffer (35 to 50 ml total, depending on the tissue. Enzymes from the skeletal muscle, corpus cavernosum, retina, heart and platelet were eluted with 35, 40, 45, 50, and 50 ml respectively.) The column was run at a flow rate of 1 ml/min and 1 ml fractions were collected. The fractions comprising various PDE activities were pooled separately and used in later studies. […]
In Vitro Determination of Ki for Phosphodiesterase Inhibitors
The assays were adapted to a 96-well format. Phosphodiesterase was assayed in 5 mM MgCl2, 15 mM Tris HCl (pH 7.4), 0.5 mg/ml bovine serum albumin, 30 nM ^3H-cGMP and test compound at various concentrations. The amount of enzyme used for each reaction was such that less than 15% of the initial substrate was converted during the assay period. For all measurements, the test compound was dissolved and diluted in 100% DMSO (2%DMSO in assay). The total volume of the assay was 100 μl. The reaction mixture was incubated at 30° C. for 90 minutes. The reaction was stopped by boiling for 1 minute and then immediately cooled by transfer to an ice bath. To each well was then added 25 μl 1 mg/ml snake venom (Ophiophagus hannah) and the reaction mixture incubating at 30° C. for 10 minute. The reaction was stopped by the addition of 1 ml Bio-Rad AG1-X2 resin slurry (1:3). An aliquot of 200 μl was taken and counted by liquid scintillation.
The % inhibition of the maximum substrate conversion (by the enzyme in the absence of inhibitor) was calculated for each test compound concentration. Using GraphPad Prism's nonlinear regression analysis (sigmoidal dose response), the % inhibition vs log of the test compound concentration was plotted to determine the IC50. Under conditions where substrate concentration<<Km of the enzyme (Km=substrate concentration at which half of the maximal velocity of the enzyme is achieved), Ki is equivalent to the IC50 value.
Following the procedures as described in Examples 10 and 11 herein, representative compounds of the instant invention were tested for PDEV and PDEVI activity. PDEV inhibitory activities for these compounds are presented as Ki values (nM) in the Table 4.
Turning to `CN1CC(=O)N2C(C1=O)c1c([nH]c3ccccc3c1=O)[C@H]2c1ccc2c(c1)OCO2` (stereo in doubt) [Compound 9, 11-Benzo[1,3]dioxol-5-yl-3-methyl-2,3,4a,11-tetrahydro-10H-3,10,11a-triaza-benzo[b]fluorene-1,4,5-trione], the Ki is 48 nM.
The same measure, in the same setting: under `CN1CC(=O)N2[C@H](c3ccc4c(c3)CCO4)c3[nH]c4ccccc4c(=O)c3[C@@H]2C1=O` [Compound 1, 11-(2,3-Dihydro-benzofuran-5-yl)-3-methyl-2,3,4a,11-tetrahydro-10H-3,10,11a-triaza-benzo[b]fluorene-1,4,5-trione] stands 7 nM.
On the same count and under the same terms, with `O=C1[C@H]2c3c([nH]c4ccccc4c3=O)[C@@H](c3ccc4c(c3)OCO4)N2C(=O)CN1Cc1ccccc1` [Compound 5, 11-Benzo[1,3]dioxol-5-yl-3-benzyl-2,3,4a,11-tetrahydro-10H-3,10,11a-triaza-benzo[b]fluorene-1,4,5-trione] the figure was 123 nM; with `CN1CCC(=O)N2[C@H](c3ccc4c(c3)OCO4)c3[nH]c4ccccc4c(=O)c3[C@@H]2C1=O` [Compound 7, 11-Benzo[1,3]dioxol-5-yl-7-methyl-5b,8,9,12-tetrahydro-7H,11H-7,10a,12-triaza-naphtho[2,3-a]azulene-5,6,10-trione], 148 nM; with `CN1CC(=O)N2[C@H](c3ccc4c(c3)CCO4)c3[nH]c4ccccc4c(=O)c3[C@H]2C1=O` [Compound 2, 11-(2,3-Dihydro-benzofuran-5-yl)-3-methyl-2,3,4a,11-tetrahydro-10H-3,10,11a-triaza-benzo[b]fluorene-1,4,5-trione], 69 nM.
For `CN1CC(=O)N2[C@@H](c3ccc4c(c3)OCO4)c3[nH]c4ccccc4c(=O)c3[C@H]2C1=O` [Compound 3, 11-Benzo[1,3]dioxol-5-yl-3-methyl-2,3,4a,11-tetrahydro-10H-3,10,11a-triaza-benzo[b]fluorene-1,4,5-trione], the Ki is 17 nM.
On to `CN1CC(=O)N2[C@@H](c3ccc4c(c3)OCO4)c3[nH]c4ccccc4c(=O)c3[C@@H]2C1=O` [Compound 4, 11-Benzo[1,3]dioxol-5-yl-3-methyl-2,3,4a,11-tetrahydro-10H-3,10,11a-triaza-benzo[b]fluorene-1,4,5-trione], for which the Ki amounted to 80 nM.
Same read-out and setting: under `O=C1[C@H]2c3c([nH]c4ccccc4c3=O)[C@@H](c3ccc4c(c3)OCO4)N2C(=O)CN1Cc1ccccn1` [Compound 10, 11-Benzo{1,3]dioxol-5-yl-3-pyridin-2-ylmethyl-2,3,4a,11-tetrahydro-10H-3,10,11a-triaza-benzo[b]fluorene-1,4,5-trione] stands 63 nM.
As for `CN1CC(=O)N2[C@H](c3ccc4c(c3)OCO4)c3[nH]c4ccccc4c(=O)c3[C@@H]2C1=O` [Compound 8, 11-Benzo[1,3]dioxol-5-yl-3-methyl-2,3,4a,11-tetrahydro-10H-3,10,11a-triaza-benzo[b]fluorene-1,4,5-trione], the Ki worked out at 14 nM.
